The text below walks through data of ChEMBL document CHEMBL6120999, “Total Synthesis and Anti-Inflammatory Activity of Tectoridin and Related Isoflavone Glucosides” (J Nat Prod, 2025).

Data set [1] deals with RAW264.7. The data set is described as follows: Anti-inflammatory activity in mouse RAW264.7 cells assessed as inhibition of LPS-induced NO production at 25 to 50 uM preincubated for 1 hr followed by LPS stimulation for 24 hrs by Griess reagent assay. Type of data set: functional, cell-based. The note with it: dose 25-50 µM, time 25.0 hrs. In general terms: Nitrite, measured by Griess reagent, commonly stands in for NO production.

Data set [2] deals with RAW264.7. The data set is described as follows: Anti-inflammatory activity against LPS-induced mouse RAW264.7 cells assessed as change in IL-6 gene expression at 50 uM treated for 24 hrs by RT-qPCR analysis. Type of data set: functional, cell-based.
Data set [3] has as its system RAW264.7. In words: Anti-inflammatory activity against LPS-induced mouse RAW264.7 cells assessed as effect on TNF-alpha gene expression at 50 uM treated for 24 hrs by RT-qPCR analysis. Type of data set: functional, cell-based. In general terms: In qPCR the cycle at which signal appears reflects the starting amount.
Data set [4] has as its system RAW264.7. In words: Cytotoxicity against mouse RAW264.7 cells assessed as effect on cell viability at 50 uM measured after 24 hrs by CCK-8 assay. The note with it: raw264.7, 24 h. Type of data set: toxicity, cell-based. (Formazan colour is commonly taken as a measure of viable cells.)
In data set [5] the test system is RAW264.7. In words: Anti-inflammatory activity against LPS-induced mouse RAW264.7 cells assessed as reduction in IL-1beta gene expression at 50 uM treated for 24 hrs by RT-qPCR analysis relative to control. On the set-up: scale not given: the % may be the effect or the level left. Type of data set: functional.
In data set [6] the test system is RAW264.7. In words: Anti-inflammatory activity against LPS-induced mouse RAW264.7 cells assessed as inhibition in IL-6 release at 50 uM by ELISA. Type of data set: functional, cell-based.
Data set [7] relates to RAW264.7. The data set is described as follows: Anti-inflammatory activity against LPS-induced mouse RAW264.7 cells assessed as reduction in TNF-alpha gene expression at 50 uM treated for 24 hrs by RT-qPCR analysis relative to control. Type of data set: functional. On the set-up: scale not given: the % may be the effect or the level left.
The subject of data set [8] is RAW264.7. The data set is described as follows: Anti-inflammatory activity against LPS-induced mouse RAW264.7 cells assessed as decrease in IL-6 gene expression by RT-qPCR analysis. Type of data set: functional, cell-based. The note with it: dose 10-50 µM.
Data set [9] deals with RAW264.7. In words: Anti-inflammatory activity against LPS-induced mouse RAW264.7 cells assessed as decrease in IL-6 gene expression at 50 uM treated for 24 hrs by RT-qPCR analysis relative to control. Type of data set: functional. The arrangement: scale not given: the % may be the effect or the level left.
The test system of data set [10] is RAW264.7. The data set is described as follows: Anti-inflammatory activity against LPS-induced mouse RAW264.7 cells assessed as decrease in TNF-alpha gene expression by RT-qPCR analysis. Type of data set: functional, cell-based. As to conditions: dose 10-50 µM.
Data set [11] concerns RAW264.7. The data set is described as follows: Anti-inflammatory activity against LPS-induced mouse RAW264.7 cells assessed as decrease in IL-1beta gene expression by RT-qPCR analysis. The note with it: dose 10-50 µM. Type of data set: functional, cell-based.
In data set [12] the test system is RAW264.7. In words: Anti-inflammatory activity against LPS-induced mouse RAW264.7 cells assessed as inhibition in TNF-alpha release at 50 uM by ELISA. Type of data set: functional, cell-based.
The subject of data set [13] is RAW264.7. The data set is described as follows: Anti-inflammatory activity in mouse RAW264.7 cells assessed as reduction in LPS-induced NO production at 50 uM preincubated for 1 hr followed by LPS stimulation for 24 hrs by Griess reagent assay relative to control. Type of data set: functional. On the set-up: scale not given: the % may be the effect or the level left. As to conditions: time 25 hrs.

Data set [14] relates to RAW264.7. In words: Anti-inflammatory activity in mouse RAW264.7 cells assessed as inhibition of LPS-induced NO production preincubated for 1 hr followed by LPS stimulation for 24 hrs by Griess reagent assay. Type of data set: functional, cell-based. As to conditions: for Activity: time 25.0 hrs.
The test system of data set [15] is RAW264.7. The data set is described as follows: Anti-inflammatory activity against LPS-induced mouse RAW264.7 cells assessed as reduction in IL-1beta gene expression at 50 uM treated for 24 hrs by RT-qPCR analysis. Type of data set: functional, cell-based.

The source made the active and inactive calls. The rule behind the calls is not given here.

For `COc1c(O[C@@H]2O[C@H](CO)[C@@H](O)[C@H](O)[C@H]2O)cc(O)c2c(=O)c(-c3ccc(O)cc3)coc12`, the result in [1], in [2] and in [3] was inactive. For the same molecule, the Activity entry was “Non-toxic” in data set [4] and 14.4% in data set [5].

Turning to `COc1cc(C(=O)OC[C@H]2O[C@@H](Oc3cc4occ(-c5ccc(O)cc5)c(=O)c4c(O)c3OC)[C@H](O)[C@@H](O)[C@@H]2O)ccc1O`, the outcome in data set [1] was inactive. Further, the Activity result in [2] is “Not active; Increase In Il-6 Gene Expression Observed”; in data set [3], “Not active; Increase In Tnf-Alpha Gene Expression Observed”; in data set [4] it was “Non-toxic”; in data set [5] it was 4.1%.

What is called IC50 is the concentration that inhibits the measured activity by half. In the case of `COc1c(O)cc(O)c2c(=O)c(-c3ccc(O)cc3)coc12` [PSI-TECTORIGENIN], the outcome in data set [6] and in [12] was Active. Besides, the Activity in [7] was 46.3%; in data set [8] it was “Dose-dependent-effect”; in data set [9], 56%; in data set [10], “Dose-dependent-effect”; in data set [11], “Dose-dependent-effect”; in data set [4], “Non-toxic”. The Activity in data set [13] is around 100%; in [5], 61%; in [14] it was “Dose-dependent-effect”. The IC50 in data set [14] was found to be 26.8 µM.

In the case of `COc1c(O)cc2occ(-c3ccc(O)cc3)c(=O)c2c1O` [TECTORIGENIN], the result in [6] and in [12] was Active. Besides, the Activity was 40% in data set [7]; “Dose-dependent-effect” in [8]; 87.8% in [9]; “Dose-dependent-effect” in [10]; “Dose-dependent-effect” in data set [11]; “Non-toxic” in data set [4]. Moreover, the Activity in [13] was 48.4%; in data set [5] it was 90.8%; in data set [14] it was “Dose-dependent-effect”. Moreover, in [14], the IC50 was found to be 51.7 µM.

As for `COc1c(O[C@@H]2O[C@H](CO)[C@@H](O)[C@H](O)[C@H]2O)cc2occ(-c3ccc(O)cc3)c(=O)c2c1O` [TECTORIDIN], the result in [1], in data set [2] and in data set [3] was inactive. Further, the values for the Activity entry in data set [4] and in data set [5] were “Non-toxic” and 31.2%, respectively.

As to `COc1c(O[C@@H]2O[C@H](CO)[C@@H](O)[C@H](O)[C@H]2O)cc2occ(-c3ccc(O[C@@H]4O[C@H](CO)[C@@H](O)[C@H](O)[C@H]4O)cc3)c(=O)c2c1O`, the Activity result in [15] was “Not active; Increase In Il-1Beta Gene Expression Observed”; in data set [4] it was “Non-toxic”. Also, the result in [1], in data set [2] and in data set [3] was inactive.
